Measurements from patent publication US20250195521A1 (Revolution Medicines, Inc., priority 2020, published 2025).

Assays:
[1] = tested on: NCI-H358 (K-Ras G12C); experiment: CellTiter-Glo cell viability assay, NCI-H358; format: cell-based, human; conditions: Homo sapiens, NCI-H358, 120 h, 5-day treatment; read-out: H358 Cell Viability assay data (K-Ras G12C, IC50)
Outline: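 Luminescent CellTiter-Glo read-out on day 5 after compound exposure; signal expressed as percent of mean DMSO control; four-parameter logistic fit gives the value.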

[2] = biological target: K-Ras G12C(GMP-PNP) binding to BRAF RBD (Homo sapiens (Human), UniProt P01116+P62937, G12C); experiment: Disruption of BRAF RBD interaction with K-Ras (FRET / MOA assay), K-Ras G12C; format: biochemical; conditions: read-out: KRAS G12C FRET IC50
Outline: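 Compounds promote ternary complex of nucleotide-loaded Ras (here K-Ras G12C·GMP-PNP; other Ras mutants substituted) with cyclophilin A, disrupting BRAF RBD binding. 10-point 3-fold series from 30 μM final, 3 h at 25 °C, then anti-His Eu (10 nM) and anti-GST APC (50 nM) for 1.5 h. TR-FRET ratio decrease versus DMSO gave IC50.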

[3] = biological target: KRAS G13D binding to BRAF RBD (Homo sapiens (Human), UniProt P01116+P62937, G13D); experiment: Ras-Raf disruption/FRET/MOA assay, KRAS G13D; format: biochemical
Source text: (§1) Note—The following protocol describes a procedure for monitoring disruption of K-Ras G12C(GMP-PNP) binding to BRAF^RBD by a compound of the invention. This protocol may also be executed substituting other Ras proteins or nucleotides.
(§2) The purpose of this biochemical assay was to measure the ability of test compounds to facilitate ternary complex formation between a nucleotide-loaded K-Ras isoform and Cyclophilin A; the resulting ternary complex disrupts binding to a BRAF^RBD construct, inhibiting K-Ras signaling through a RAF effector. Data is reported as IC50 values.
(§3) Compound was present in plate wells as a 10-point 3-fold dilution series starting at a final concentration of 30 μM. After incubation at 25° C. for 3 hours, a mixture of Anti-His Eu—W1024 and anti-GST allophycocyanin was then added to assay sample wells at final concentrations of 10 nM and 50 nM, respectively, and the reaction incubated for an additional 1.5 hours. […] Compounds that facilitate disruption of a K-Ras: RAF complex were identified as those eliciting a decrease in the TR-FRET ratio relative to DMSO control wells.

[4] = biological target: KRAS Q61H binding to BRAF RBD (Homo sapiens (Human), UniProt P01116+P62937, Q61H); experiment: Ras-Raf disruption/FRET/MOA assay, KRAS Q61H; format: biochemical
Source text: (§4) Disruption of B-Raf Ras-binding Domain (BRAF^RBD) Interaction with K-Ras by Compounds of the Invention (also called a FRET assay or an MOA assay)
as §1, §2
as §3, with “In assay buffer containing 25 mM HEPES pH 7.3, 0.002% Tween20, 0.1% BSA, 100 mM NaCl and 5 mM MgCl2, tagless Cyclophilin A, His6-K-Ras-GMPPNP, and GST-BRAF^RBD were combined in a 384-well assay plate at final concentrations of 25 μM, 12.5 nM and 50 nM, respectively. Compound was” for “Compound was”

[5] = biological target: NRAS G12C binding to BRAF RBD (Homo sapiens (Human), UniProt P01111+P62937, G12C); experiment: Ras-Raf disruption/FRET/MOA assay, NRAS G12C; format: biochemical
Source text: as §1, §2, §3

[6] = biological target: NRAS Q61R binding to BRAF RBD (Homo sapiens (Human), UniProt P01111+P62937, Q61R); experiment: Ras-Raf disruption/FRET/MOA assay, NRAS Q61R; format: biochemical
Source text: as §4, §1, §2
as §3, with “In assay buffer containing 25 mM HEPES pH 7.3, 0.002% Tween20, 0.1% BSA, 100 mM NaCl and 5 mM MgCl2, tagless Cyclophilin A, His6-K-Ras-GMPPNP, and GST-BRAF^RBD were combined in a 384-well assay plate at final concentrations of 25 μM, 12.5 nM and 50 nM, respectively. Compound was” for “Compound was”

[7] = biological target: NRAS Q61K binding to BRAF RBD (Homo sapiens (Human), UniProt P01111+P62937, Q61K); experiment: Ras-Raf disruption/FRET/MOA assay, NRAS Q61K; format: biochemical
Source text: as §4, §1, §2
as §3, with “In assay buffer containing 25 mM HEPES pH 7.3, 0.002% Tween20, 0.1% BSA, 100 mM NaCl and 5 mM MgCl2, tagless Cyclophilin A, His6-K-Ras-GMPPNP, and GST-BRAF^RBD were combined in a 384-well assay plate at final concentrations of 25 μM, 12.5 nM and 50 nM, respectively. Compound was” for “Compound was”

[8] = biological target: NRAS WT binding to BRAF RBD (Homo sapiens (Human), UniProt P01111+P62937); experiment: Ras-Raf disruption/FRET/MOA assay, NRAS WT; format: biochemical
Source text: as §4, §1, §2
as §3, with “In assay buffer containing 25 mM HEPES pH 7.3, 0.002% Tween20, 0.1% BSA, 100 mM NaCl and 5 mM MgCl2, tagless Cyclophilin A, His6-K-Ras-GMPPNP, and GST-BRAF^RBD were combined in a 384-well assay plate at final concentrations of 25 μM, 12.5 nM and 50 nM, respectively. Compound was” for “Compound was”

[9] = tested on: K-Ras G12C (NCI-H358 cells); experiment: Potency assay: pERK in NCI-H358 cells; format: cell-based, human; conditions: Homo sapiens; NCI-H358 cells, 4 hours; read-out: pERK EC50 (H358 KRAS G12C)
Outline: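 Cells plated the day before were exposed for 4 h at 37° C, 5% CO2 to a 10-point, 3-fold DMSO dilution series (10 mM top stock), in duplicate. Phospho-ERK was read by AlphaLISA SureFire Ultra or by In-Cell Western with DRAQ5 DNA stain, and IC50 came from a 4-parameter sigmoidal fit.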

KRAS G13D binding to BRAF RBD, sequence (P01116 other isoform, or with tags, fused parts or gaps G13D): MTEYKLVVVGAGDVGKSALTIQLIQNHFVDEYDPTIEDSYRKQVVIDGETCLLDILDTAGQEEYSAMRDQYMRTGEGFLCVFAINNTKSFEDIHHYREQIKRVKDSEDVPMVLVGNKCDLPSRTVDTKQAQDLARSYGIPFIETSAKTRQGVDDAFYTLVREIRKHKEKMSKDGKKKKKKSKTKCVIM
KRAS G13D binding to BRAF RBD, sequence (P62937 whole entry): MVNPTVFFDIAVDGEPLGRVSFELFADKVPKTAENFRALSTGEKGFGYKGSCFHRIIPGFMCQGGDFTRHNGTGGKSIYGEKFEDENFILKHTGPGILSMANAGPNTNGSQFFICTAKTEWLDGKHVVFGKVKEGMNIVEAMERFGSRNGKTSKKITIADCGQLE
NRAS WT binding to BRAF RBD, sequence (P01111 whole entry): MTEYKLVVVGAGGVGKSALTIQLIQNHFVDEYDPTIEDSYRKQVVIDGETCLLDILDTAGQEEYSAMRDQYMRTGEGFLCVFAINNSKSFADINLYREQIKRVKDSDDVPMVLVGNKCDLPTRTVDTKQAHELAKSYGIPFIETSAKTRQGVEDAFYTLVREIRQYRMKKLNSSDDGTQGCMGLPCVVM
NRAS WT binding to BRAF RBD, sequence (P62937 whole entry): as the sequence (P62937 whole entry) above
KRAS Q61H binding to BRAF RBD, sequence (P01116 other isoform, or with tags, fused parts or gaps Q61H): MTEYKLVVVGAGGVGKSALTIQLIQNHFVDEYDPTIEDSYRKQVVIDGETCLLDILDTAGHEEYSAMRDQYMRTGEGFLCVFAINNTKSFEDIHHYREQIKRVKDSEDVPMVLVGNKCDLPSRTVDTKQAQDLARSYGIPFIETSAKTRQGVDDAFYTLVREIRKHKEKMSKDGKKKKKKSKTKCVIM
KRAS Q61H binding to BRAF RBD, sequence (P62937 whole entry, the tested form may be a part): as the sequence (P62937 whole entry) above
K-Ras G12C(GMP-PNP) binding to BRAF RBD, sequence (P01116 other isoform, or with tags, fused parts or gaps G12C): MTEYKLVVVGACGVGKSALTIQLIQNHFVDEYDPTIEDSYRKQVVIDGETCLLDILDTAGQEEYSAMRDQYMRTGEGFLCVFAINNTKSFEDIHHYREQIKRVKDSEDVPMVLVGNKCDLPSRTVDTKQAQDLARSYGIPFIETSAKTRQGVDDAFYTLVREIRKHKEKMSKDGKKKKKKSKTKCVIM
K-Ras G12C(GMP-PNP) binding to BRAF RBD, sequence (P62937 whole entry): as the sequence (P62937 whole entry) above
NRAS G12C binding to BRAF RBD, sequence (P01111 whole entry G12C): as the sequence (P01111 whole entry) above, with G12C counted along it
NRAS G12C binding to BRAF RBD, sequence (P62937 whole entry): as the sequence (P62937 whole entry) above
NRAS Q61K binding to BRAF RBD, sequence (P01111 whole entry Q61K): as the sequence (P01111 whole entry) above, with Q61K counted along it
NRAS Q61K binding to BRAF RBD, sequence (P62937 whole entry): as the sequence (P62937 whole entry) above
NRAS Q61R binding to BRAF RBD, sequence (P01111 whole entry Q61R): as the sequence (P01111 whole entry) above, with Q61R counted along it
NRAS Q61R binding to BRAF RBD, sequence (P62937 whole entry): as the sequence (P62937 whole entry) above

SMILES	IC50 [1] [µM]	IC50 [2] [µM]	IC50 [3] [µM]	IC50 [4] [µM]	IC50 [5] [µM]	IC50 [6] [µM]	IC50 [7] [µM]	IC50 [8] [µM]	EC50 [9] [µM]
CCn1c(-c2cccnc2[C@H](C)OC)c2c3cc(ccc31)-c1csc(n1)C[C@H](NC(=O)C1(COC3CN(C(=O)C#CC(C)(C)N4CCC4)C3)CC1)C(=O)N1CCC[C@H](N1)C(=O)OCC(C)(C)C2 [Compound A362]	0.01 to 0.1	0.01 to 0.1	> 10	1 to 10	0.01 to 0.1	> 10	> 10	1 to 10	–
CCn1c(-c2cccnc2[C@H](C)OC)c2c3cc(ccc31)-c1cccc(c1)C[C@H](NC(=O)[C@H](C(C)C)N1CC[C@]3(CCN(C(=O)C#CC(C)(C)N4CCC4)C3)C1=O)C(=O)N1CCC[C@H](N1)C(=O)OCC(C)(C)C2 [Compound A365]	< 0.01	< 0.01	1 to 10	0.1 to 1	< 0.01	1 to 10	1 to 10	1 to 10	–
C=CC(=O)N1CC[C@H](C(=O)N(C)[C@H](C(=O)N[C@H]2CC3CN(CCO3)c3ccc4c(c3)c(c(-c3cccnc3[C@H](C)OC)n4CC)CC(C)(C)COC(=O)[C@@H]3CCCN(N3)C2=O)C(C)C)C1 [Compound A378]	0.1 to 1	–	> 10	> 10	0.1 to 1	> 10	> 10	1 to 10	< 5
C=CC(=O)N1CC[C@H](C(=O)C2CC[C@H](C)[C@H]2C(=O)N[C@H]2Cc3cccc(c3)-c3ccc4c(c3)c(c(-c3cccnc3[C@H](C)OC)n4CC)CC(C)(C)COC(=O)[C@@H]3CCCN(N3)C2=O)C1 (stereo partly drawn) [Compound A494]	–	–	> 10	0.1 to 1	0.1 to 1	1 to 10	1 to 10	1 to 10	< 5
C=CC(=O)N(C)CCN1CCN(C(=O)N(C)[C@H](C(=O)N[C@H]2C[n+]3cccc(c3)-c3ccc4c(c3)c(c(-c3cccnc3[C@H](C)OC)n4CC)CC(C)(C)COC(=O)[C@@H]3CCCN(N3)C2=O)C(C)C)CC1 [Compound A539]	0.1 to 1	0.1 to 1	1 to 10	0.1 to 1	0.1 to 1	0.1 to 1	0.1 to 1	0.1 to 1	–
C=CC(=O)N1CC[C@]2(C1)OCN([C@H](C(=O)N[C@H]1Cc3cc(cc(C(F)(F)F)c3)-c3ccc4c(c3)c(c(-c3cccnc3[C@H](C)OC)n4CC)CC(C)(C)COC(=O)[C@@H]3CCCN(N3)C1=O)C(C)C)C2=O [Compound A557]	0.1 to 1	0.1 to 1	1 to 10	0.01 to 0.1	0.1 to 1	1 to 10	1 to 10	0.1 to 1	< 5
C=CC(=O)N(C)CCN1CCN(C(=O)N(C)[C@H](C(=O)N[C@H]2CN3CCC=C(C3)c3ccc4c(c3)c(c(-c3cccnc3[C@H](C)OC)n4CC)CC(C)(C)COC(=O)[C@@H]3CCCN(N3)C2=O)C(C)C)C[C@@H]1C [Compound A570]	0.1 to 1	0.1 to 1	1 to 10	0.1 to 1	0.1 to 1	0.1 to 1	0.1 to 1	0.1 to 1	< 5
